Results taken from patent US12358859B2, “Series of compounds for treatment of skin diseases and other conditions” (Unigen, Inc., priority 2018, dated 2025).
Converted amounts (≈) assume the structure as drawn. Like-named read-outs stand apart in the source and are kept apart here.

Experiments:
[1] = tested on: murine melanoma cells B16-F1; experiment: Melanin production by murine melanoma cells B16-F1; assay type: cell-based; conditions: Mus musculus, B16-F1, 1 nM α-MSH, 48 hours
Experimental: Selected compounds were then tested for the ability to suppress melanin production by the murine melanoma cells B16-F1 as detailed below.
Murine melanoma cells B16-F1 were purchased from the ATCC (Cat #CRL-6323). Cell Titer96 AqueousOne Solution was purchased from Promega (Cat #G3582). 0.2 μm pore size, low protein binding filters were purchased from PALL Life Sciences. (Cat #PN4454).
Alpha-MSH was purchased from the Sigma Aldrich (Cat #M4135-1MG). All tissue culture reagents were purchased from VWR (phenol-red-free DMEM, cat #12001-630, L-glutamine, cat #12001-698) and Fisher Scientific (Trypsin-EDTA, cat #25-200-056).
The B16-F1 cells were maintained in cell growth media (DMEM/High Glucose supplemented with glutamine, 10% fetal bovine serum, 50 units/ml penicillin, and 50 units/mL of streptomycin) at 37° C. in a humidified atmosphere of 95% air and 5% CO2.
All test compounds were initially dissolved in 100% DMSO at a concentration of 400 mM. Then, 6 μL of 400 mM test compounds were added to 1.2 mL of the cell growth media giving a final concentration of 2 mM for the test compound and concentration of 0.5% for DMSO. The compounds were centrifuged for 1 h at 20,000×g. Supernatants (1 mL) were collected and filtered through sterile 0.2 μm filters. The compounds were serially diluted in two-fold increments in the sterile cell growth media supplemented with 0.5% DMSO, thus keeping the concentration of DMSO constant for all samples. These serially diluted compounds were subsequently used as two-fold concentrated stock solutions in the melanin production and cell viability assays. Equal volumes of 2× compounds were mixed with media containing 2 nM α-MSH to give a final concentration of 1 nM α-MSH, 0.5% DMSO, and 1× concentration of test compounds.
B16-F1 cells were seeded into the wells of clear-bottom 24-well plates at 50,000 cells per well, in 0.5 mL of cell growth media. On the following day, 0.5 mL of freshly prepared test compounds containing α-MSH were added to the wells. The cells were maintained at 37° C. in a humidified atmosphere of 95% air and 5% CO2 for 48 hours. At the end of the incubation period, melanin-containing conditioned media was removed from the cells and transferred to another plate. To measure melanin content the light absorbance of conditioned media was taken at 492 nm using a TECAN Genios plate reader.
More than 90% percent of the melanin produced by cultured melanoma cells is found in extra-cellular media. Therefore, at the end of the experiment melanin-containing media was collected and relative amounts of melanin were determined by absorption at 492 nm. Viability of cells was determined by a commonly used colorimetric procedure that is based on conversion of the tetrazolium compounds to colored formazan products (using Promega's CellTiter96 AqueousOne assay). Dehydrogenase enzymes in metabolically active cells accomplish this conversion, and the amount of formazan product is directly proportional to the number of living cells in culture. Mean (n=2) absorption of wells containing no cells was subtracted as blanks. The results were computed as percent of wells that contained the cells but no test compounds.

[2] = tested on: Propionibacterium acnes (ATCC11827); experiment: P-acne MIC/MBC test; assay type: cell-based; conditions: for MIC: lowest level that inhibits growth, turbidity, 1 day
Experimental: The anti-microbial activity of the tested compounds were evaluated using published methods (Modugno e. al. (1994) Antimicrobial agents and Chemotherapy 38: 2362-2368; […] et. al. (1973) Antimicrobial agents and Chemotherapy 3: 40-48. Propionibacterium acnes (ATCC11827) was cultured for 20 hours at 37° C. in Reinforced Clostridal medium. The test article and positive control were dissolved in 1% DMSO with an incubation volume of 1 mL. The time of assessment was 1 day. Measurement of turbidity was used as the method of quantification. The compounds were tested in duplicate at concentrations of 250 ug/mL, 125 ug/mL, 62 ug/mL, 31 ug/mL, 16 ug/mL, 8 ug/mL, 4 ug/mL, 2 ug/mL relative to positive control ampicillin at 0.1 ug/mL.

[3] = biological target: 5-lipoxygenase from potato; experiment: Lipoxygenase Inhibition Assay; assay type: biochemical; conditions: read-out: Anti-inflammatory (IC50) 5-LOX
Experimental: One of the most important pathway involved in the inflammatory response is produced by non-heme, ion-containing lipoxygenases (5-LOX, 12-LOX and 15-LOX) which catalyze the oxidation of fatty acids such as AA to produce the hydoperoxides 5-, 12- and 15-HEPTE, which are then converted to leukotrienes. A Lipoxygenase Inhibition Assay was carried out using commercial kit from Cayman Chemical (cat #760700, 5-lipoxygenase from potato, cat #60400). The test article and positive control were dissolved in 1% DMSO. 90 μL of diluted potato lipoxygenase enzyme and 10 μL inhibitor were added to a flat-bottom clear 96-well microplate. The plate was pre-incubated for five minutes at room temperature. The reaction was initiated by the addition of 10 μL linoleic acid substrate. The plate was then placed on a shaker for 10 minutes at room temperature. 100 μL Chromogen solution was added to each well and the plate was shaken again for five minutes. The absorbance was read at 492 nm using a TECAN Genios plate reader. The inhibitor concentration vs. % of inhibition was plotted and the IC50 determined.

[4] = ORAC 5.0 antioxidant capacity; conditions: Trolox reference standard
Excerpt: Table 5 lists representative novel 1,6-dienes analogs of Formula I-III which are useful as anti-oxidant. ORAC 5.0 consists of five types of ORAC assays that evaluate the antioxidant capacity of material against five primary reactive oxygen species (ROSs, commonly called “oxygen radicals”) found in humans: peroxyl radical, hydroxyl radical, superoxide anion, singlet oxygen, and […]. Trolox is used as reference standard, and the results are expressed as μ mole Trolex equivalency per gram (or milliliter) of a tested material.

[5] = FIGS. 2-8, read-out: IC50, inhibition in the production of melanin
[6] = Tables 1-3, read-out: MELANIN PRODUCTION
[7] = Cutibacterium acnes, ATCC11827, 24 h, read-out: MIC
[8] = Cutibacterium acnes, ATCC11827, lowest concentration required to kill the bacterium, read-out: MBC

Row | SMILES | IC50 [1, 5] [µM] | IC50 [1, 6] [µM] | MIC [2, 7] [µg/mL] | MBC [2, 8] [µg/mL] | MBC ([2]; lowest concentration required to kill the bacterium) [ppm] | MIC [2] [ppm] | IC50 [3] [µM] | ORAC [4] [μ mole TE/gram]
1 | CC(C)=CCCC(C)=Cc1ccc(O)cc1 (mixture of isomers) [Compound 1, (E/Z)-4-(2,6-dimethylhepta-1,5-dienyl)phenol] | 158 | 158 | < 3.9 | < 3.9 | <3.9 | <3.9 | 90 | 
2 | CC(C)=CCC/C(C)=C/c1cc(O)cc(O)c1 [Compound 4, (E/Z)-5-(2,6-dimethylhepta-1,5-dienyl)benzene-1,3-diol] | 72 | 72 | < 3.9 | < 3.9 |  |  | 317 | 22580
3 | CC(C)=CCCC(C)/C=C/c1ccc(O)cc1 (centres unmarked) [Compound 5, (E)-4-(3,7-dimethylocta-1,6-dienyl)phenol] |  | 72 | < 3.9 |  |  |  | 50 | 37643
4 | CC(C)=CCCC(C)/C=C/c1ccc(O)cc1O (centres unmarked) [Compound 6, (E)-4-(3,7-dimethylocta-1,6-dienyl) benzene-1,3-diol] | 9 | 9 | 3.9 (≈ 15.8 µM) | 3.9 to 31.3 (≈ 15.8 to 127 µM) |  |  | 307 | 45869
5 | CC(C)=CCCC(C)/C=C/c1cc(O)cc(O)c1 (centres unmarked) [Compound 7, (E)-5-(3,7-dimethylocta-1,6-dienyl) benzene-1,3-diol] | 97 | 97 | 7.8 (≈ 31.7 µM) | 7.8 to 31.3 (≈ 31.7 to 127 µM) |  |  | 143 | 18196
6 | CC(C)=CCCC(C)C/C=C\c1cc(O)cc(O)c1 (centres unmarked) [Compound 15, (Z)-5-(4,8-dimethylnona-1,7-dienyl) benzene-1,3-diol] | 74 | 158 | < 3.9 | < 3.9 |  |  | 90 | 11951
